According to patent publication US20080248134A1, “Oral compositions, use and combinations of N-[2-(dimethylamino)ethyl]-2,6 dimethyl-1-oxo-1,2-dihydrobenzo[b]-1,6-naphthyridine-4-carboxamide and closely related analogues thereof” (Auckland Uniservices Limited, priority 2005, published 2008):

Assays:
[1] = data taken from the literature; cited from earlier work
[2] = test system: CHrC5; experiment: In vitro susceptibility to multidrug resistance, continuous exposure IC50; assay type: cell-based, Chinese Hamster; conditions: for IC50: Cricetulus griseus, CHrC5 (multidrug resistant), continuous exposure; for Resistance factor: ratio of IC50 values in CHrC5 and AuxB1
Protocol: (§1) Multidrug resistance mediated by p-glycoprotein and related transport proteins is an important means by which cancer cells evade cytotoxic drugs. […] IC50 values of several drugs were measured in continuous exposure assays in these two cell lines. The resistance factor was calculated as the ratio of these values. High values indicate high susceptibility to resistance.

[3] = test system: AuxB1; experiment: as above; assay type: cell-based, Chinese Hamster; conditions: Cricetulus griseus, AuxB1 (no multidrug resistance)
Protocol: as §1

[4] = test system: Jurkat; experiment: In vitro cell proliferation assay, continuous drug exposure; assay type: cell-based; conditions: Homo sapiens, continuous drug exposure 3-5 days
Excerpt: (§2) The results with the JLA and JLD lines, which have reduced topoisomerase II content as compared to the parental Jurkat line, indicate that the IC50 value of the compound is increased with decreased topoisomerase content. This is also the case for etoposide, amsacrine, DACA and doxorubicin.

[5] = test system: JLD; experiment: as above; assay type: cell-based; conditions: Homo sapiens; JLD (reduced topoisomerase II), continuous drug exposure 3-5 days
Excerpt: as §2

[6] = test system: HCT116p53+; experiment: as above; assay type: cell-based; conditions: Homo sapiens, continuous drug exposure 3-5 days
Excerpt: as §2

[7] = test system: HCT116p53−; experiment: as above; assay type: cell-based; conditions: Homo sapiens, continuous drug exposure 3-5 days
Excerpt: as §2

[8] = test system: JLA; experiment: as above; assay type: cell-based; conditions: Homo sapiens; JLA (reduced topoisomerase II), continuous drug exposure 3-5 days
Excerpt: as §2

[9] = test system: NZEN1; experiment: Human tumour xenograft; assay type: in vivo; conditions: NZEN1, Endometrium; comparison drug
Protocol: (§3) The compound of Formula II was evaluated in a number of xenografts using cell lines derived from cervical, endometrial, lung and colon carcinomas, leukaemia and melanoma (Table 3). These studies indicate that the compound according to the present invention has significant activity in xenografts.

[10] = test system: Jurkat LA; experiment: Human tumour xenograft; assay type: in vivo; conditions: Leukaemia, comparison drug
Protocol: as §3

[11] = test system: p53, p21 and Fas in HCT116 (TP53 wild type); experiment: Induction of the p53 pathway, western blotting; assay type: cell-based, human
Excerpt: The p53 protein is thought to play a major role in the induction of apoptosis in tumour cells (Levine A J. p53, the cellular gatekeeper for growth and division. Cell. 1997. 88(3):323-331). The p53 protein is a transcriptional activator, which acts in response to DNA damage and other stress pathways, and increases expression of proteins such as Fas and p21^WAF1. […] Products were detected by western blotting.

[12] = test system: survivin in HCT116 (TP53 wild type); experiment: Inhibition of survivin production, western blotting; assay type: cell-based, human; conditions: various concentrations, 24 hours
Protocol: Survivin is a protein that is expressed selectively in many types of cancer cells and which is known to be associated with resistance to apoptosis (Zaffaroni N and Daidone M G. Survivin expression and resistance to anticancer treatments: perspectives for new therapeutic interventions. Drug Resistance Updates: Reviews and Commentaries in Antimicrobial and Anticancer Chemotherapy. 2002 5(2):65-72). […] Extracts were prepared, proteins were separated by electrophoresis and survivin expression was determined by western blotting.

[13] = test system: NZC1; experiment: Human tumour xenograft; assay type: in vivo; conditions: NZC1, Cervix; comparison drug
Protocol: as §3

[14] = test system: NZM10; experiment: Human tumour xenograft; assay type: in vivo; conditions: NZM10, Melanoma; comparison drug
Protocol: as §3

[15] = test system: NZMp2; experiment: Human tumour xenograft; assay type: in vivo; conditions: NZMp2, Melanoma; comparison drug
Protocol: as §3

[16] = test system: NZM4; experiment: Human tumour xenograft; assay type: in vivo; conditions: NZM4, Melanoma; comparison drug
Protocol: as §3

[17] = test system: NZM3; experiment: Human tumour xenograft; assay type: in vivo; conditions: NZM3, Melanoma; comparison drug
Protocol: as §3

Structure (SMILES) | accumulation in tumour tissue versus liver tissue and plasma [1] | IC50 [2] [µM] | Resistance factor [2] | IC50 [3] [µM] | IC50 [4] [µM] | IC50 [5] [µM] | IC50 [6] [µM] | IC50 [7] [µM] | IC50 [8] [µM] | Comparison [9] | Comparison [10] | induction of p53, p21 and Fas ([11]; 24 hours at higher cell density (approaching confluence)) | induction of p53, p21 and Fas ([11]; 24 hours exposure) | induction of p53, p21 and Fas ([11]; earlier times (4-10 hours)) | survivin expression [12] | Comparison [13] | Comparison [14] | Comparison [15] | Comparison [16] | Comparison [17]
CNC(=O)c1cccc2c(Nc3ccc(NS(C)(=O)=O)cc3OC)c3cccc(C)c3nc12 [asulacrine, 9-((2-methoxy-4-[(methylsulfonyl)-amino]phenyl)amino)-N,5-dimethyl-4-acridinecarboxamide] | accumulate more in the liver tissue than tumour tissue |  |  |  |  |  |  |  |  |  |  |  |  |  |  |  |  |  |  | 
COc1cccc2c1C(=O)c1c(O)c3c(c(O)c1C2=O)C[C@@](O)(C(=O)CO)C[C@@H]3O[C@H]1C[C@H](N)[C@H](O)[C@H](C)O1 [Doxorubicin] |  | 6.1 | 114 | 0.053 | 0.0096 | 0.27 | 0.0105 | 0.021 | 0.042 | inactive | inactive | did not | induced p53, p21 and Fas in dose-dependent fashions | did not | only small effects |  |  |  |  | 
CN(C)CCNC(=O)c1cccc2cc3ccccc3nc12.Cl.Cl [DACA, N-[2-(dimethylamino)ethyl]acridine-4-carboxamide dihydrochloride] | relatively evenly spread throughout each tissue and plasma | 0.216 | 1.6 | 0.125 | 0.58 | 2.5 | 0.36 | 0.51 | 1.1 |  |  |  |  |  |  |  |  |  |  | 
COc1cc(NS(C)(=O)=O)ccc1Nc1c2ccccc2nc2ccccc12 [Amsacrine] | accumulate more in the liver tissue than tumour tissue | 0.11 | 5.6 | 0.019 | 0.037 | 2.7 | 0.025 | 0.052 | 3.1 |  |  |  |  |  |  |  |  |  |  | 
COc1cc([C@@H]2c3cc4c(cc3[C@@H](O[C@@H]3O[C@@H]5CO[C@@H](C)O[C@H]5[C@H](O)[C@H]3O)[C@H]3COC(=O)[C@H]23)OCO4)cc(OC)c1O [Etoposide] |  | 8.6 | 7.2 | 1.19 | 0.16 | 14.4 | 0.21 | 0.39 | 2.08 |  |  |  |  |  | only small effects | active | active | active | active | active
